Results reported in the Deep4Chem optical property database.
“And” between values parts separate entries of the source, which are not always exact repeats. Equal entries are not always repeated. Each block holds one compound with its values, some of them ahead of it.

Assay: photoluminescence quantum yield (fraction); solvent given as SMILES

photoluminescence quantum yield (in ClCCl): 0.0043
SMILES: COC(=O)[C@H](Cc1ccccc1)Nc1c(C(C)=O)c(=O)oc2cc(N(C)C)ccc12

photoluminescence quantum yield (in ClCCl): 0.99
SMILES: COc1ccc(C2=Cc3ccccc3[Si]2(c2ccccc2)c2ccccc2)cc1

photoluminescence quantum yield (in C1CCOC1): 0.0003
SMILES: C(=C1c2ccccc2-c2ccccc21)c1ccc(C=C2c3ccccc3-c3ccccc32)cc1

photoluminescence quantum yield (in C1CCCCC1): 0.12
SMILES: CCn1c2ccccc2c2ccc(C#N)cc21

photoluminescence quantum yield (in ClCCl): 0
SMILES: C(#Cc1cccs1)c1ncc(-c2ccccc2)o1

photoluminescence quantum yield (in ClCCl): 0.11
SMILES: COc1ccc(/C=C/c2cc(/C=C/c3ccc(OC)cc3)nc(/C=C/c3ccc4cc(OC)ccc4c3)n2)cc1

SMILES: CCCCCCc1ccc(-n2c3[n+](c4c5ccccc5c5ccccc5c42)[B-](C)(C)c2cc(N(c4ccccc4)c4ccccc4)ccc2-3)cc1
photoluminescence quantum yield (in C1CCOC1): 0.86
photoluminescence quantum yield (in CC#N): 0.73
photoluminescence quantum yield (in Cc1ccccc1): 0.83
photoluminescence quantum yield (in ClCCl): 0.88

photoluminescence quantum yield (in CN(C)C=O): 0.98
SMILES: Cc1ccc2[nH]c(-c3ccc(-c4ccc(-c5ccc(-c6nc7cc(C)ccc7[nH]6)cc5)c(F)c4)cc3)nc2c1

photoluminescence quantum yield (in C1CCOC1): 0.46
photoluminescence quantum yield (in CC#N): 0.46
photoluminescence quantum yield (in CN(C)C=O): 0.75
photoluminescence quantum yield (in ClCCl): 0.56
photoluminescence quantum yield (in c1ccccc1): 0.49
SMILES: CCN1c2ccc(-c3cc(C(F)(F)F)[nH]n3)cc2Sc2cc(-c3cc(C(F)(F)F)[nH]n3)ccc21

SMILES: CCCCN1C(=O)C(=C/C=C/C=C/C=C2N(CCCC)c3ccccc3N2CCCC)C(=O)N(CCCC)C1=S
photoluminescence quantum yield (in CC#N): 0.099
photoluminescence quantum yield (in CCCCCC): 0.178
photoluminescence quantum yield (in CCO): 0.074
photoluminescence quantum yield (in CN(C)C=O): 0.127
photoluminescence quantum yield (in CO): 0.056
photoluminescence quantum yield (in Cc1ccccc1): 0.73
photoluminescence quantum yield (in ClC(Cl)Cl): 0.365
photoluminescence quantum yield (in ClCCl): 0.266
photoluminescence quantum yield (in OCC(F)(F)F): 0.023

photoluminescence quantum yield (in CCO): 0.18
photoluminescence quantum yield (in O): 0.13
SMILES: CC[N+](CC)=c1ccc2nc3c(cc(NCCC(=O)NC(C)C(=O)OC)c4ccccc43)oc-2c1 (centres undefined)

SMILES: N#Cc1ccc(N)cc1
photoluminescence quantum yield (in C1CCCCC1): 0.13
photoluminescence quantum yield (in CC#N): 0.12
photoluminescence quantum yield (in CCCCCC): 0.09
photoluminescence quantum yield (in CCO): 0.041
photoluminescence quantum yield (in O): 0.0046
photoluminescence quantum yield (in OCC(F)(F)F): 0.0052

SMILES: COc1ccc(-n2c3ccccc3c3cc(C=C(C#N)C#N)ccc32)cc1
photoluminescence quantum yield (in C1CCOC1): 0.03
photoluminescence quantum yield (in CC#N): 0.01
photoluminescence quantum yield (in CC(C)=O): 0.018
photoluminescence quantum yield (in CCOC(C)=O): 0.05
photoluminescence quantum yield (in CO): 0.015
photoluminescence quantum yield (in CS(C)=O): 0.01
photoluminescence quantum yield (in Cc1ccccc1): 0.15
photoluminescence quantum yield (in ClC(Cl)Cl): 0.035

photoluminescence quantum yield (in CCO): 0.31
photoluminescence quantum yield (in ClCCl): 0.91
SMILES: COc1ccc(-c2c3ccc(=[N+]4CCCCC4)cc-3oc3cc(N4CCCCC4)ccc23)cc1

photoluminescence quantum yield (in CC#N): 0.003
photoluminescence quantum yield (in CCCCCC): 0.003
photoluminescence quantum yield (in CO): 0.003
photoluminescence quantum yield (in c1ccccc1): 0.003 and 0.002
SMILES: O=c1oc2cc3ccccc3cc2nc1-c1ccccc1

photoluminescence quantum yield (in ClCCl): 0.18
SMILES: F[B-]1(F)n2c(Cl)c(Cl)c(Br)c2C(Cl)=C2C(Br)=C(Cl)C(Cl)=[N+]21

photoluminescence quantum yield (in ClCCl): 0.0025
SMILES: CC(=O)c1c(N[C@@H](CS)C(=O)O)c2ccc(N(C)C)cc2oc1=O

photoluminescence quantum yield (in C1CCCCC1): 0.008
photoluminescence quantum yield (in C1CCOC1): 0.01
photoluminescence quantum yield (in C1COCCO1): 0.013
photoluminescence quantum yield (in CC#N): 0.007
photoluminescence quantum yield (in CCO): 0.007
photoluminescence quantum yield (in CN(C)C=O): 0.016
photoluminescence quantum yield (in CO): 0.008
photoluminescence quantum yield (in COCCOC): 0.007
photoluminescence quantum yield (in CS(C)=O): 0.018
photoluminescence quantum yield (in O): 0.011
photoluminescence quantum yield (in OCC(O)CO): 0.068
photoluminescence quantum yield (in OCCO): 0.022
SMILES: CN(C)c1c2ccccc2cc2ccccc12

photoluminescence quantum yield (in CS(C)=O): 0.27
photoluminescence quantum yield (in ClCCl): 0.84
SMILES: CCNc1cc2oc(=O)c3c(=O)oc4ccccc4c3c2cc1C

photoluminescence quantum yield (in CCOC(C)=O): 0.45
SMILES: CCn1c2ccccc2c2c(C#N)c3c(ccc4c3cnn4C)nc21

photoluminescence quantum yield (in ClCCl): 0.82
SMILES: O=c1c2cccc3cccc(c32)c2nc3c(F)c(F)c(F)c(F)c3n12

photoluminescence quantum yield (in ClC(Cl)Cl): 0.9
SMILES: CCN(CC)c1ccc2cc(-c3cn4cc(OC)ccc4n3)c(=O)oc2c1

photoluminescence quantum yield (in C1CCOC1): 0.588
SMILES: c1ccc(-c2nc3c4ccccc4c4ccccc4c3n2-c2ccccc2)cc1

photoluminescence quantum yield (in CS(C)=O): 0.04
SMILES: Cn1c(=O)c(/N=N/c2ccc(Nc3ccccc3)c(S(=O)(=O)O)c2)c(O)c2ccccc21

photoluminescence quantum yield (in CN(C)C=O): 0.95
SMILES: Nc1ccc(N2C(=O)c3ccc4c5ccc6c7c(ccc(c8ccc(c3c48)C2=O)c75)C(=O)N(c2ccc(O)cc2)C6=O)cc1

photoluminescence quantum yield (in C1COCCO1): 0.031
photoluminescence quantum yield (in CC#N): 0.036
photoluminescence quantum yield (in CCO): 0.037
photoluminescence quantum yield (in CCOC(C)=O): 0.037
photoluminescence quantum yield (in ClC(Cl)Cl): 0.033
photoluminescence quantum yield (in c1ccccc1): 0.038
SMILES: CCOC(=O)CSc1nc(-c2ccccc2)c(C)c(C#N)c1C#N

photoluminescence quantum yield (in CC#N): 0.169
photoluminescence quantum yield (in O): 0.0367
SMILES: Nc1nc2ccccc2[n+]([O-])n1

SMILES: CCCCCCc1ccc(/C=C/c2ccc(CCCCCC)s2)s1
photoluminescence quantum yield (in Cc1ccccc1): 0.051

photoluminescence quantum yield (in ClCCl): 0.4
SMILES: COc1ccc(C2=C3C(/C=C/c4cc(OC)c(OC)c(OC)c4)=C(C=O)C(/C=C/c4cc(OC)c(OC)c(OC)c4)=[N+]3[B-](F)(F)n3c(/C=C/c4cc(OC)c(OC)c(OC)c4)c(C=O)c(C=Cc4cc(OC)c(OC)c(OC)c4)c32)cc1

photoluminescence quantum yield (in ClCCl): 0.032
SMILES: Cc1cccc2nc(-c3ccc(-c4cc(=O)cc(-c5ccccc5)o4)cc3)c(NC3CCCCC3)n12

photoluminescence quantum yield (in CC#N): 0.67
SMILES: Cc1ccc(-c2ccc(/C=C/c3ccccc3)cn2)nc1

SMILES: F[B-]1(F)OC(c2ccc(C(F)(F)F)cc2)=Cc2cc(Cl)nc[n+]21
photoluminescence quantum yield (in C1CCOC1): 0.01
photoluminescence quantum yield (in CC#N): 0.01
photoluminescence quantum yield (in Cc1ccccc1): 0.04
photoluminescence quantum yield (in ClC(Cl)Cl): 0.01
photoluminescence quantum yield (in ClCCl): 0.01

photoluminescence quantum yield (in c1ccccc1): 0.478
SMILES: O=c1oc2ccc3ccccc3c2nc1-c1ccc(Cl)cc1

photoluminescence quantum yield (in ClCCl): 0.45
SMILES: COCCOCCOCCOCC(COCCOCCOCCOC)Oc1cc(/C=C/c2ccc(/C=C(\C#N)c3ccncc3)cc2)c(OC(COCCOCCOCCOC)COCCOCCOCCOC)cc1/C=C/c1ccc(/C=C(\C#N)c2ccncc2)cc1

SMILES: N#Cc1ccc(-c2ccc3c(c2)c2cc(-c4ccc(C#N)cc4)ccc2c2c3nc(-c3ccc(-c4ccc(N(c5ccccc5)c5ccccc5)cc4)cc3)n2-c2ccccc2)cc1
photoluminescence quantum yield (in C1CCOC1): 0.54
photoluminescence quantum yield (in CC#N): 0.51
photoluminescence quantum yield (in CCCCCC): 0.82
photoluminescence quantum yield (in CCOCC): 0.9

photoluminescence quantum yield (in CCO): 0.3
photoluminescence quantum yield (in ClCCl): 0.89
SMILES: c1ccc(-c2c3ccc(=[N+]4CCCCC4)cc-3oc3cc(N4CCCCC4)ccc23)cc1

photoluminescence quantum yield (in C1COCCO1): 0.64
photoluminescence quantum yield (in CC#N): 0.55
photoluminescence quantum yield (in CO): 0.87
photoluminescence quantum yield (in ClCCl): 0.42
photoluminescence quantum yield (in O): 0.95
SMILES: COC(=O)c1nc2cnc(N)nc2n1Cc1ccccc1

photoluminescence quantum yield (in ClCCl): 0.282
SMILES: Cc1ccc(-n2c(-c3ccc(N(c4ccc(-c5ccc(N(c6ccc(-c7nc8c9ccccc9c9ccccc9c8n7-c7ccc(C)cc7)cc6)c6ccc(-c7nc8c9ccccc9c9ccccc9c8n7-c7ccc(C)cc7)cc6)cc5)cc4)c4ccc(-c5nc6c7ccccc7c7ccccc7c6n5-c5ccc(C)cc5)cc4)cc3)nc3c4ccccc4c4ccccc4c32)cc1

photoluminescence quantum yield (in C1COCCO1): 0.012
SMILES: O=C1NC(c2ccccc2)=C/C1=C\c1ccccc1

photoluminescence quantum yield (in ClCCl): 0.79
SMILES: C(#Cc1c2ccccc2c(-c2ccccc2)c2cc3ccccc3cc12)c1ccccc1

photoluminescence quantum yield (in O): 0.3
SMILES: Fc1cc(F)c2cc3cccc[n+]3cc2c1

photoluminescence quantum yield (in CC#N): 0.61
SMILES: O=c1oc2ccccc2cc1/C=C/c1ccccc1
